Results published in patent US11684644B2, “Composition for promoting absorption of phytochemicals” (MEIJI CO., LTD., priority 2018, dated 2023).
Where two headings read alike, the source gives them in different places.

Tests used:
[1] = Evaluation for dissolvability of phytochemical (dissolution rate in water); settings: for Dissolution rate: ultrapure water, shaken for 3 hours, centrifuged supernatant
From the text: In the present invention, the “dissolution rate” is an index indicating dissolvability of a compound into water, and is also represented by the value, in terms of the percentage (%), obtained by dividing a concentration (w/v) of the compound in a supernatant, which is obtained by shaking the compound in pure water to dissolve the compound therein and by centrifuging the solution, by a concentration (w/v) of the compound in pure water before being dissolved therein. The concentration may be measured by using a spectrophotometer. […] The temperature condition in the measurement of the “dissolution rate” is set to 21±2° C.
Furthermore, 10 mL of ultrapure water was added to the glucoside phytochemical such that the amount of aglycone (portion other than carbohydrate obtained by hydrolysis of glucoside) can be equal to 33.3 mg; namely, 67.3 mg of rutin (33.3 mg of quercetin); 89.6 mg of α-glucosyl rutin (33.3 mg of quercetin); 67.3 mg of hesperidin (33.3 mg of hesperetin); or 71.0 mg of naringin (33.3 mg of naringenin). As for the terpenoids, in accordance with the administering amount used in Experiments, 10 mL of ultrapure water was added to 3.3 mg of each of β-carotene and lycopene. The solutions thus prepared were shaken for 3 hours, and then, were centrifuged at 2000×g for 10 minutes. The centrifuged supernatants were filtrated by using a 0.45 μL filter. […] Each compound was dissolved in 80% methanol or methanol to obtain a calibration curve; and then, the concentration of the centrifuged supernatant was obtained. A series of the operations above were carried out under the temperature condition of 21±2° C. The dissolution rate was calculated in accordance with the following formula. Dissolution rate (%)=[(concentration of the centrifuged supernatant after dissolution by shaking (w/v))+(concentration of the solution before dissolution by shaking (w/v)]×100

[2] = Experiment 3: promoting absorption of β-carotene, yogurts of strain combinations; assay type: in vivo; settings: male, SD, oral; rat serum, 5 mg/kg-body weight β-carotene, 11.3 g/kg-body weight yogurt, up to 480 minutes; read-out: Area Under the blood concentration-time Curve (AUC) of β-carotene (converted)
Description: (§1) Column temperature was set at 40° C.
The yogurts thus obtained contained 15 μg/g, 54 μg/g, and 67 μg/g of the polysaccharide, respectively.

[3] = Experiment 5: promoting absorption of β-carotene, comparison with other absorption promotors; assay type: in vivo; settings: male, SD, oral; rat serum, 5 mg/kg-body weight β-carotene, 70 mg/kg-body weight polysaccharide, up to 480 minutes; read-out: Area Under the blood concentration-time Curve (AUC) of β-carotene (converted)
Description: A part of the yogurt of Experiment 4 (Lactobacillus bulgaricus OLL1251 and Streptococcus thermophilus OLS3290) was taken; and then, to the supernatant thereof was added ethanol the amount of which was three times as much as the supernatant. The resulting mixture was kept in a frozen state, and thereafter, the supernatant of the mixture was centrifuged to obtain a precipitate. This precipitate was freeze-dried to obtain a polysaccharide concentrate. In 11.3 g of the yogurt, 70 mg of the polysaccharide concentrate was included. Hereinafter, the polysaccharide concentrate obtained is called “lactic acid bacterium-originated polysaccharide concentrate”.

in vivo = settings: male, SD, rat, 5 mg/kg
[4] = Experiment 1: promoting absorption of β-carotene, yogurts of OLL1251 and other strains; assay type: in vivo; settings: male, SD, oral; rat serum, 5 mg/kg-body weight β-carotene, 11.3 g/kg-body weight yogurt, up to 480 minutes; read-out: Area Under the blood concentration-time Curve (AUC) of β-carotene (converted)
Description: as §1
The yogurts thus obtained contained 136 μg/g, 88 μg/g, and 68 μg/g of the polysaccharide, respectively.

[5] = concentration of the centrifuged supernatant after shaking in ultrapure water, 21±2° C., glucosides in terms of the aglycone

| Compound | Saturated solubility [1] | Dissolution rate ([1]; 21±2° C.) | also measured |
| --- | --- | --- | --- |
| CC(C)=CCC/C(C)=C/C=C/C(C)=C/C=C/C(C)=C/C=C/C=C(C)/C=C/C=C(C)/C=C/C=C(\C)CCC=C(C)C [Lycopene] | 0.1 or less mg/100 g | 0.1% or less |  |
| CC1=C(/C=C/C(C)=C/C=C/C(C)=C/C=C/C=C(C)/C=C/C=C(C)/C=C/C2=C(C)C[C@@H](O)CC2(C)C)C(C)(C)CCC1 [β-Cryptoxanthin] | 0.1 or less mg/100 g | 0.1% or less |  |
| COc1ccc([C@@H]2CC(=O)c3c(O)cc(O[C@@H]4O[C@H](CO[C@@H]5O[C@@H](C)[C@H](O)[C@@H](O)[C@H]5O)[C@@H](O)[C@H](O)[C@H]4O)cc3O2)cc1O [Hesperidin] |  | 0.2% | Saturated solubility [1, 5]: 0.5 mg/100 g |
| C[C@@H]1O[C@@H](OC[C@H]2O[C@@H](Oc3c(-c4ccc(O)c(O)c4)oc4cc(O)cc(O)c4c3=O)[C@H](O)[C@@H](O)[C@@H]2O)[C@H](O)[C@H](O)[C@H]1O [Rutin] | 1.0 mg/100 g |  |  |
| O=c1c(-c2ccc(O)cc2)coc2cc(O)cc(O)c12 [Genistein] |  | 0.2% | Saturated solubility [1, 5]: 0.6 mg/100 g |
| CC1=C(/C=C/C(C)=C/C=C/C(C)=C/C=C/C=C(C)/C=C/C=C(C)/C=C/C(=O)[C@]2(C)C[C@@H](O)CC2(C)C)C(C)(C)C[C@H](O)C1 [Capsanthin] | 0.1 or less mg/100 g | 0.1% or less |  |
| CC1=C[C@H](O)CC(C)(C)[C@H]1/C=C/C(C)=C/C=C/C(C)=C/C=C/C=C(C)/C=C/C=C(C)/C=C/C1=C(C)C[C@@H](O)CC1(C)C [Lutein] | 0.1 or less mg/100 g | 0.1% or less |  |

Continued, in another order:

| Saturated solubility [1] | Dissolution rate ([1]; 21±2° C.) | Compound | also measured |
| --- | --- | --- | --- |
| 0.1 or less mg/100 g | 0.1% or less | O=c1cc(-c2ccc(O)c(O)c2)oc2cc(O)cc(O)c12 [Luteolin] |  |
| 0.1 or less mg/100 g | 0.1% or less | CC1=CCCC(C)(C)C1/C=C/C(C)=C/C=C/C(C)=C/C=C/C=C(C)/C=C/C=C(C)/C=C/C1=C(C)CCCC1(C)C (stereo not drawn) [α-Carotene] |  |
| 0.1 mg/100 g | 0.1% or less | O=c1c(O)c(-c2ccc(O)cc2)oc2cc(O)cc(O)c12 [Kaempferol] |  |
| 287 mg/100 g |  | Oc1cc(O)c2c(c1)O[C@H](c1ccc(O)c(O)c1)[C@H](O)C2 [Epicatechin] |  |
| 0.1 or less mg/100 g | 0.1% or less | CC1=C(/C=C/C(C)=C/C=C/C(C)=C/C=C/C=C(C)/C=C/C=C(C)/C=C/C2=C(C)CCCC2(C)C)C(C)(C)CCC1 [β-Carotene] | AUC [2]: 88.8 ng·h/mL; AUC [3]: 131 ng·h/mL; AUC (in vivo): 110 ng·h/mL; AUC [4]: 75 ng·h/mL |
| 1.1 mg/100 g | 0.3% | O=C1C[C@@H](c2ccc(O)cc2)Oc2cc(O)cc(O)c21 [Naringenin] |  |
| 0.1 mg/100 g | 0.1% or less | O=c1c(O)c(-c2ccc(O)c(O)c2)oc2cc(O)cc(O)c12 [Quercetin] |  |
| 295 mg/100 g | 89% | α-Glucosyl rutin |  |
| 55 mg/100 g | 17% | C[C@@H]1O[C@@H](O[C@H]2[C@H](Oc3cc(O)c4c(c3)O[C@H](c3ccc(O)cc3)CC4=O)O[C@H](CO)[C@@H](O)[C@@H]2O)[C@H](O)[C@H](O)[C@H]1O [Naringin] |  |
